Patent publication US10167284B2, “Spirocyclic compounds as agonists of the muscarinic M1 receptor and/or M4 receptor” (HEPTARES THERAPEUTICS LIMITED, priority 2015, dated 2019)

Key:
[1] = biological target: T1, human muscarinic M1 receptor (Homo sapiens, UniProt P11229); assay: Alphascreen Surefire phospho-ERK1/2 functional assay, M1; assay type: cell-based; conditions: for M1 % Emax cf. ACh / EC50: CHO cells stably expressing human M1; for M1 % Emax cf. ACh / Emax: Emax relative to ACh; for EC50: phospho-ERK1/2, read-out: pEC50 M1 (converted); for Emax: CHO, read-out: M1 % Emax cf. ACh, CHO cells stably expressing human M1
T1 construct: expressed in transfected cells
T1 sequence (P11229 1-460): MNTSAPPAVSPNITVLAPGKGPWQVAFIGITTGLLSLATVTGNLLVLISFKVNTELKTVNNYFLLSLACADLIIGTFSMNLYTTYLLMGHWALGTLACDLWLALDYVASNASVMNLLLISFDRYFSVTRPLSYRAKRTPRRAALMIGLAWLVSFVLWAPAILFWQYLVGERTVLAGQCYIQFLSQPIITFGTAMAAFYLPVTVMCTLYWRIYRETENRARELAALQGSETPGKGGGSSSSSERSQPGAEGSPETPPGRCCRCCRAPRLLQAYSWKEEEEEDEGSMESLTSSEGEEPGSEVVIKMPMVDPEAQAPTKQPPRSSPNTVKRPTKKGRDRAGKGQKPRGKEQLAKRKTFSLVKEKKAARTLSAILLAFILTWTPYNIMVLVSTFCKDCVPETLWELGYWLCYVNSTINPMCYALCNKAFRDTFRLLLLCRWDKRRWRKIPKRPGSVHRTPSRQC
Experimental: (§1) CHO cells stably expressing the human muscarinic M1, M2, M3 or M4 receptor were plated (25K/well) onto 96-well tissue culture plates in MEM-alpha+10% dialysed FBS. Once adhered, cells were serum-starved overnight. Agonist stimulation was performed by the addition of 5 μL agonist to the cells for 5 min (37° C.). Media was removed and 50 μL of lysis buffer added. After 15 min, a 4 μL sample was transferred to 384-well plate and 7 μL of detection mixture added. Plates were incubated for 2 h with gentle agitation in the dark and then read on a PHERAstar plate reader.
(§2) pEC50 and Emax figures were calculated from the resulting data for each receptor subtype.

[2] = biological target: T2, human muscarinic M4 receptor (Homo sapiens, UniProt P08173); assay: Alphascreen Surefire phospho-ERK1/2 functional assay, M4; assay type: cell-based; conditions: for M4 % Emax cf. ACh / EC50: CHO cells stably expressing human M4; for M4 % Emax cf. ACh / Emax: Emax relative to ACh; for EC50: phospho-ERK1/2, read-out: pEC50 M4 (converted); for Emax: CHO, read-out: M4 % Emax cf. ACh, CHO cells stably expressing human M4
T2 construct: expressed in transfected cells
T2 sequence (P08173 1-479): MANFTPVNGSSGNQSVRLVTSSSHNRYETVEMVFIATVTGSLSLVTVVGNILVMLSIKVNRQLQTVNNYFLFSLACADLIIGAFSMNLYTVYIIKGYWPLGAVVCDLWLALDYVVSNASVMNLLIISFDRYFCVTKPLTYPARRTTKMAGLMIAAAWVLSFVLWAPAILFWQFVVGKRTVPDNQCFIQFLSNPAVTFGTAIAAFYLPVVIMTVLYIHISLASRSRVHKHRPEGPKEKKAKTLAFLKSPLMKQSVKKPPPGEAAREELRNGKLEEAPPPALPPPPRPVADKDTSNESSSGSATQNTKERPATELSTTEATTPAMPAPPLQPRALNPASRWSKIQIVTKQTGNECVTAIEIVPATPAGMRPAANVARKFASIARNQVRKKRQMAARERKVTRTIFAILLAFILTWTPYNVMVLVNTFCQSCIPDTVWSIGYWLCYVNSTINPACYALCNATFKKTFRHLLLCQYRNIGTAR
Experimental: as §1, §2

[3] = biological target: T3, human muscarinic M2 receptor (Homo sapiens, UniProt P08172); assay: Alphascreen Surefire phospho-ERK1/2 functional assay, M2; conditions: for Emax: CHO, read-out: M2 % Emax cf. ACh, CHO cells stably expressing human M2; for Emax / M2 % Emax cf. ACh: Emax relative to ACh; for EC50: pEC50 M2, CHO cells stably expressing human M2, phospho-ERK1/2; for M2 % Emax cf. ACh: CHO cells stably expressing human M2
T3 sequence (P08172 1-466): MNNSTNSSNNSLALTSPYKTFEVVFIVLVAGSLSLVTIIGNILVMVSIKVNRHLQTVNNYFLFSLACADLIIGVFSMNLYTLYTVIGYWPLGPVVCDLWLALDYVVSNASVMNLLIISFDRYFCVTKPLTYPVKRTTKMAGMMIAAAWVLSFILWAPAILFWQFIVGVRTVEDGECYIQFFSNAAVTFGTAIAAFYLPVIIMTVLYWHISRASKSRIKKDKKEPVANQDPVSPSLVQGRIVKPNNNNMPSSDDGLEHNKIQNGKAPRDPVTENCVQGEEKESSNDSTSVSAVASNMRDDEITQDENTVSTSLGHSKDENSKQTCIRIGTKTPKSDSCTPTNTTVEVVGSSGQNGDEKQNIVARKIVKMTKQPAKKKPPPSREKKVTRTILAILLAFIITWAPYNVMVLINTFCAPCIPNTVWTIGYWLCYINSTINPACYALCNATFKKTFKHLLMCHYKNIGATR
Experimental: as §1, §2

[4] = biological target: human muscarinic M3 receptor (Homo sapiens, UniProt P20309); assay: Alphascreen Surefire phospho-ERK1/2 functional assay, M3; conditions: for Emax: CHO, read-out: M3 % Emax cf. ACh, CHO cells stably expressing human M3
human muscarinic M3 receptor, sequence (P20309 whole entry): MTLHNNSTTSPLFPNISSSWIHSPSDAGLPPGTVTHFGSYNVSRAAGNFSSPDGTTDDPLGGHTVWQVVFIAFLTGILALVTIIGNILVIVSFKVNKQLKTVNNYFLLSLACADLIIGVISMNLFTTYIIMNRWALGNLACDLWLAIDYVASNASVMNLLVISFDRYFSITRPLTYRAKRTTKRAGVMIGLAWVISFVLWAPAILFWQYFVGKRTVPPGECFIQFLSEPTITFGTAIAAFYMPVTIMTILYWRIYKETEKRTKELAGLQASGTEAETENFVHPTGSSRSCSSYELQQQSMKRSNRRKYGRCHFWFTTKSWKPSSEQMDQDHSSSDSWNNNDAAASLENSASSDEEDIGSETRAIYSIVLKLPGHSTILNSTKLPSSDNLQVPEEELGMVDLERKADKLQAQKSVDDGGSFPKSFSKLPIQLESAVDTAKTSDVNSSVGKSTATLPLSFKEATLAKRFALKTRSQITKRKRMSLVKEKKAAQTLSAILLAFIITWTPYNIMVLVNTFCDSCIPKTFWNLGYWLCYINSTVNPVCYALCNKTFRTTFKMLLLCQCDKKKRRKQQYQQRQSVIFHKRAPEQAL
Experimental: as §1, §2

Compound	M1 % Emax cf. ACh [1]	EC50 [1]	M4 % Emax cf. ACh [2]	EC50 [2]	Emax [3]	EC50 [3]	EC50 [4]	Emax ([4]; Emax relative to ACh)	Emax [1]	Emax [2]	M2 % Emax cf. ACh [3]	M3 % Emax cf. ACh ([4]; CHO cells stably expressing human M3, Emax relative to ACh)
COC(=O)N1CCC2(CC(N3CCC4(CC3)CNC(=O)C4)C2)C1 (single isomer, unassigned) [3-1 Isomer 2]	–	79.4 nM	–	100 nM	14%	> 20000 nM	> 20000 nM	20%	87%	50%	–	–
COC(=O)N1CCC2(CC(N3CCC4(CC3)CNC(=O)O4)C2)C1 (single isomer, unassigned) [4-1 Isomer 2]	–	126 nM	–	126 nM	18%	> 20000 nM	> 20000 nM	11%	104%	86%	–	–
CCOC(=O)N1CCC2(CC(N3CCC4(CC3)CC(=O)NC4C)C2)C1 (single isomer, unassigned) [3-3 Isomer 2]	–	158 nM	–	200 nM	2%	> 20000 nM	> 20000 nM	7%	97%	81%	–	–
CCOC(=O)N1CCC2(CC(N3CCC4(CC3)CNC(=O)C4)C2)C1 (single isomer, unassigned) [3-2 Isomer 2]	–	15.8 nM	–	20 nM	3%	> 20000 nM	> 20000 nM	2%	87%	50%	–	–
CCOC(=O)N1CCC2(CC(N3CCC4(CC3)OC(=O)NC4CC)C2)C1 (single isomer, unassigned) [4-12 Isomer 1]	(17) %	> 20000 nM	(63) %	79.4 nM	–	> 20000 nM	> 20000 nM	4%	–	–	(50) %	–
CCC1NC(=O)CC12CCN(C1CC3(CCN(C(=O)OC)C3)C1)CC2 (single isomer, unassigned) [3-4 Isomer 3]	(101) %	79.4 nM	(71) %	25.1 nM	–	> 20000 nM	> 20000 nM	24%	–	–	(8) %	–
CCCN1CC2(CCN(C3CC4(CCN(C(=O)OCC)C4)C3)CC2)OC1=O (single isomer, unassigned) [4-7 Isomer 2]	–	631 nM	–	501 nM	41%	> 20000 nM	> 20000 nM	2%	104%	69%	–	–
CCOC(=O)N1CC2(CC(N3CCC4(CC3)OC(=O)NC4CC)C2)C1 (single isomer, unassigned) [2-1 Isomer 2]	–	158 nM	–	126 nM	15%	> 20000 nM	> 20000 nM	–	106%	108%	–	(4) %
[2H]C([2H])([2H])OC(=O)N1CCC2(CC(N3CCC4(CC3)CNC(=O)O4)C2)C1 (single isomer, unassigned) [4-2 Isomer 2]	–	251 nM	–	200 nM	13%	> 20000 nM	> 20000 nM	42%	113%	76%	–	–
CCOC(=O)N1CCC2(CC(N3CCC4(CC3)OC(=O)NC4CC(F)(F)F)C2)C1 (single isomer, unassigned) [4-17 Isomer 1 (racemic)]	–	126 nM	–	31.6 nM	54%	> 20000 nM	> 20000 nM	14%	114%	107%	–	–

Results, then the molecule that gave them:

M1 % Emax cf. ACh [1]	EC50 [1]	M4 % Emax cf. ACh [2]	EC50 [2]	Emax [3]	EC50 [3]	EC50 [4]	Emax ([4]; Emax relative to ACh)	Emax [1]	Emax [2]	M2 % Emax cf. ACh [3]	M3 % Emax cf. ACh ([4]; CHO cells stably expressing human M3, Emax relative to ACh)	Compound
(84) %	398 nM	(138) %	5.01 nM	3%	> 20000 nM	> 20000 nM	7%	–	–	–	–	CCCN1C(=O)OC2(CCN(C3CC4(CCN(C(=O)OCC)C4)C3)CC2)C1(C)C (single isomer, unassigned) [4-37 Isomer 1]
–	> 20000 nM	–	39.8 nM	1%	> 20000 nM	> 20000 nM	50%	17%	84%	–	–	CCCN1C(=O)CC2(CCN(C3CC4(CCN(C(=O)OCC)C4)C3)CC2)N1CC (single isomer, unassigned) [6-9 Isomer 2]
(88) %	316 nM	(32) %	50.1 nM	8%	> 20000 nM	> 20000 nM	4%	–	–	–	–	CCCN1C(=O)OC2(CCN(C3CC4(CCN(C(=O)OCC)C4)C3)CC2)C1CC (single isomer, unassigned) [4-23 Isomer 3]
–	501 nM	–	10 nM	53%	> 20000 nM	> 20000 nM	2%	84%	84%	–	–	CCOC(=O)N1CCC2(CC(N3CCC4(CC3)OC(=O)N(CC(C)C)C4CC)C2)C1 (single isomer, unassigned) [4-24 Isomer 2 (racemic)]
–	> 20000 nM	–	100 nM	5%	> 20000 nM	> 20000 nM	42%	8%	86%	–	–	CCOC(=O)N1CCC2(CC(N3CCC4(CC3)OC(=O)N(CCOC)C4(C)C)C2)C1 (single isomer, unassigned) [4-41 Isomer 2]
–	794 nM	–	31.6 nM	4%	> 20000 nM	> 20000 nM	4%	66%	88%	–	–	CCOC(=O)N1CCC2(CC(N3CCC4(CC3)OC(=O)NC43CCCC3)C2)C1 (single isomer, unassigned) [4-31 Isomer 2]
–	12600 nM	–	79.4 nM	52%	> 20000 nM	> 20000 nM	1%	35%	106%	–	–	CCCN1C(=O)OC2(CCN(C3CC4(CCN(C(=O)OC)C4)C3)CC2)C1(C)C (single isomer, unassigned) [4-36 Isomer 2]
–	1000 nM	–	63.1 nM	7%	> 20000 nM	> 20000 nM	7%	86%	106%	–	–	CCOC(=O)N1CCC2(CC(N3CCC4(CC3)OC(=O)N(C3CC3)C4CC)C2)C1 (mixture of isomers) [4-47 mixture of diastereomers]
–	631 nM	–	126 nM	13%	> 20000 nM	> 20000 nM	11%	77%	68%	–	–	CCN1NC(=O)CC12CCN(C1CC3(CCN(C(=O)OC)C3)C1)CC2 (single isomer, unassigned) [6-1 Isomer 2]
–	2000 nM	–	100 nM	2%	> 20000 nM	> 20000 nM	1%	34%	83%	–	–	CCN1C(=O)OC2(CCN(C3CC4(CCN(C(=O)OC)C4)C3)CC2)C1(C)C (single isomer, unassigned) [4-34 Isomer 2]
